The values below come from PubChem BioAssay (NCI).

Among the test systems are ACHN renal; CCRF-CEM leukemia; EKVX NSCLC; HOP-62 NSCLC; K-562 leukemia; NCI-H460 lung; OVCAR-4 ovarian; RPMI-8226 leukemia; SF-539 CNS; SW-620 colon.
Experiment in all cases: DTP human tumour cell line panel, 48 h

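These data come from cells grown in 96-well plates and exposed to compound for 48 hours at five concentrations. The concentration for 50% growth inhibition is given as GI50. Definition used: TGI = concentration required for complete inhibition of growth.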

With `C1=CC2SSSC2C1` (stereo not drawn), the TGI in the assay with ACHN renal, in the assay with CCRF-CEM leukemia, with EKVX NSCLC, with HOP-62 NSCLC, in the assay on K-562 leukemia and in the assay on NCI-H460 lung was above 100 µM throughout. Moreover, the TGI in the assay on OVCAR-4 ovarian, in the assay on RPMI-8226 leukemia, in the assay with SF-539 CNS and in the assay with SW-620 colon was above 100 µM each time.
`CCOC(=O)c1c(C)n(Cc2ccc(Cl)cc2Cl)c2c1c(CN(C)C)c(O)c1[nH]cnc12`: the GI50 (in general, the concentration giving 50% growth inhibition) is 15.4 µM in the assay with ACHN renal; 2.37 µM in the assay with CCRF-CEM leukemia; 22.5 µM with EKVX NSCLC; 12.8 µM with HOP-62 NSCLC; 3.22 µM in the assay with K-562 leukemia; 15.3 µM in the assay on NCI-H460 lung. Also, the GI50 in the assay with OVCAR-4 ovarian was 16.7 µM; with RPMI-8226 leukemia, 7.95 µM; in the assay with SF-539 CNS, 20.2 µM; in the assay on SW-620 colon, 20.1 µM. The TGI (in general, the concentration giving total growth inhibition) came out at 28.7 µM in the assay on ACHN renal; 8.18 µM in the assay with CCRF-CEM leukemia; 42.9 µM in the assay on EKVX NSCLC; 29.5 µM with HOP-62 NSCLC; 15.5 µM with K-562 leukemia; 28.7 µM in the assay on NCI-H460 lung. The concentration for total growth inhibition (TGI) with OVCAR-4 ovarian turned out to be 85.7 µM; in the assay on RPMI-8226 leukemia it was 22.1 µM; in the assay with SF-539 CNS it was 36.9 µM; with SW-620 colon it was 34.3 µM.
As for `COc1ccccc1CCc1cc(OC)c(OC)c(OC)c1`, the TGI with ACHN renal, in the assay with CCRF-CEM leukemia, in the assay on EKVX NSCLC, in the assay on HOP-62 NSCLC, in the assay with K-562 leukemia and with NCI-H460 lung was above 100 µM in each case. The TGI in the assay with OVCAR-4 ovarian is above 100 µM; in the assay with RPMI-8226 leukemia, 68.8 µM; in the assay on SF-539 CNS, above 100 µM; in the assay on SW-620 colon, above 100 µM.
For `NCC1Nc2ccccc2[C@@H](O)C1O` (stereo partly drawn), the TGI in the assay with ACHN renal, in the assay with CCRF-CEM leukemia, with EKVX NSCLC, in the assay on HOP-62 NSCLC, with K-562 leukemia and with NCI-H460 lung was above 100 µM in each case. Further, the TGI in the assay on OVCAR-4 ovarian, in the assay with RPMI-8226 leukemia, in the assay with SF-539 CNS and in the assay on SW-620 colon was above 100 µM throughout.
Consider `CCOc1ccccc1N=Nc1ccc2oc(=O)c(C(=O)Nc3cccc(C)c3)cc2c1`, for which the TGI in the assay on CCRF-CEM leukemia was 83.8 µM; with EKVX NSCLC, 95.2 µM; in the assay on HOP-62 NSCLC it was above 100 µM; in the assay with K-562 leukemia, 88 µM; in the assay on OVCAR-4 ovarian, 79.4 µM; in the assay on RPMI-8226 leukemia it was above 100 µM. In addition, the figures for the TGI with SF-539 CNS and with SW-620 colon were 91.1 µM and above 100 µM, respectively.
With `CC(=O)/C(C)=N/NC(=O)c1ccccc1O`, the GI50 with ACHN renal, with EKVX NSCLC, in the assay on HOP-62 NSCLC, in the assay on NCI-H460 lung, with OVCAR-4 ovarian and with RPMI-8226 leukemia was above 100 µM in each case. Moreover, the GI50 in the assay with SW-620 colon is above 100 µM. In addition, the total growth inhibition concentration (TGI) in the assay with ACHN renal, in the assay on CCRF-CEM leukemia, in the assay with EKVX NSCLC, in the assay on HOP-62 NSCLC, in the assay with K-562 leukemia and with NCI-H460 lung was above 100 µM in each case. Moreover, the TGI in the assay with OVCAR-4 ovarian is above 100 µM; with RPMI-8226 leukemia, above 100 µM; in the assay on SF-539 CNS, above 10 µM; in the assay on SW-620 colon, above 100 µM.
For the molecule `COc1ccc(C(=O)C(C(=O)CCC(=O)Nc2cccc(Cl)c2)c2ccc(OC)cc2)cc1` (stereo not drawn), the TGI in the assay on ACHN renal, in the assay on CCRF-CEM leukemia, with EKVX NSCLC, with HOP-62 NSCLC, in the assay with K-562 leukemia and with NCI-H460 lung was above 100 µM in each case. Also, the concentration for total growth inhibition (TGI) in the assay on OVCAR-4 ovarian, in the assay with RPMI-8226 leukemia, in the assay with SF-539 CNS and with SW-620 colon was above 100 µM throughout.
Turning to `COc1ccc(Nc2c3ccccc3nc3occc23)cc1`, the GI50 in the assay with ACHN renal was 9.95 µM; with CCRF-CEM leukemia, 1.27 µM; in the assay on EKVX NSCLC, 18.1 µM; in the assay with HOP-62 NSCLC it was 5.42 µM; with K-562 leukemia, 0.292 µM; in the assay on NCI-H460 lung, 0.87 µM. In addition, the GI50 in the assay with OVCAR-4 ovarian was 16.9 µM; in the assay on RPMI-8226 leukemia it was 1.12 µM; in the assay with SF-539 CNS, 2.84 µM; in the assay on SW-620 colon, 2.9 µM. In addition, the TGI with ACHN renal is above 80.6 µM; in the assay on CCRF-CEM leukemia, above 24.7 µM; with EKVX NSCLC, above 52.7 µM; in the assay on HOP-62 NSCLC it was 30.1 µM; in the assay on NCI-H460 lung, 28.1 µM; in the assay on OVCAR-4 ovarian, above 100 µM. Besides, the TGI in the assay on RPMI-8226 leukemia came out at 12.4 µM; in the assay on SF-539 CNS, 20.8 µM; with SW-620 colon it was 39.5 µM.
In the case of `Cc1cc(S(=O)(=O)Nc2nnc(-c3ccccc3)c(-c3ccccc3)n2)c(SCC(N)=O)cc1Cl`, the GI50 with ACHN renal is above 100 µM; in the assay on CCRF-CEM leukemia it was 29.3 µM; with EKVX NSCLC, above 100 µM; in the assay with HOP-62 NSCLC, 52.5 µM; in the assay on K-562 leukemia it was 36.3 µM; with NCI-H460 lung, 36.9 µM. The GI50 was 41.5 µM in the assay on OVCAR-4 ovarian, 30.9 µM in the assay on RPMI-8226 leukemia, 0.671 µM in the assay with SF-539 CNS and 41.5 µM in the assay on SW-620 colon. Moreover, the concentration for total growth inhibition (TGI) in the assay with ACHN renal was above 100 µM; in the assay with CCRF-CEM leukemia, 77.4 µM; in the assay on EKVX NSCLC, above 100 µM; in the assay on HOP-62 NSCLC it was above 100 µM; with K-562 leukemia, above 100 µM; with NCI-H460 lung, above 100 µM. Also, the total growth inhibition concentration (TGI) with OVCAR-4 ovarian is above 100 µM; with RPMI-8226 leukemia, 86.6 µM; with SF-539 CNS it was 30.1 µM; with SW-620 colon, above 100 µM.
Take `CCOC(=O)CC1(C(=O)OCC)c2[nH]c3ccccc3c2CCN1Cc1ccccc1` (stereo not drawn): the TGI with ACHN renal was 50.9 µM; in the assay on CCRF-CEM leukemia, above 100 µM; with EKVX NSCLC, 50.8 µM; in the assay on HOP-62 NSCLC it was 33.6 µM; with K-562 leukemia, above 100 µM; in the assay on NCI-H460 lung, 42.6 µM. The concentration for total growth inhibition (TGI) with OVCAR-4 ovarian was 55.2 µM; with SF-539 CNS, 35.8 µM; with SW-620 colon it was above 100 µM.
